Patent US7282522B2, “Hydroxamic acid derivatives and the method for preparing thereof” (Amorepacific Corporation, priority 2003, dated 2007)

How the values were obtained:
RARα = target: T1, RARα (Homo sapiens, UniProt P10276); experiment: RARE-luciferase reporter assay in transfected CV-1 cells (affinity to retinoic acid receptor), RARα; assay type: cell-based; details: treated 24 hours at final concentration 10^−4M, control group 1000
T1 construct: expressed in transfected cells; host or cells: CV-1 cells (ATCC)
T1 sequence (P10276 1-462): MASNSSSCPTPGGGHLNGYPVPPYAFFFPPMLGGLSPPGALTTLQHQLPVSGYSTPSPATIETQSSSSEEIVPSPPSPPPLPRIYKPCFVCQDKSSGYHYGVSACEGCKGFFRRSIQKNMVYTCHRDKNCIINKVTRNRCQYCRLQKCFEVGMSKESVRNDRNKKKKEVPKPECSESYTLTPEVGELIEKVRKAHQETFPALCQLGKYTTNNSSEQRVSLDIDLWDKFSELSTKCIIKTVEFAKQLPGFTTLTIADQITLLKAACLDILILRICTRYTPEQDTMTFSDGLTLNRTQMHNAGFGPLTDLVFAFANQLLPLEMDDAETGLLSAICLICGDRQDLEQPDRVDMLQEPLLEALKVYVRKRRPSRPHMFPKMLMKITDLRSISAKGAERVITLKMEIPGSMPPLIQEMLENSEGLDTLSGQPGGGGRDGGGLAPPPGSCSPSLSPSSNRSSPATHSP
From the text: This example illustrates affinities of hydroxamic acid derivatives obtained in Examples 1 to 55 to retinoic acid receptor, in comparison with retinol and retinoic acid.
(§1) Receptor-expression plasmid, pECE-RARα and pECE-RARγ were engineered by the prior method (Mol. Cell. Biol. 1996, 16, 1138-1149). RARE-tk-Luc, i.e. RARE reporter was obtained by inserting RARE fragment from b-RARE-tk-CAT into pGL3 luciferase basic vector. CV-1 cells were obtained from ATCC (American Type Culture Collection).
CV-1 cells were seeded into 96-well microtiter plate at 5,000 cells per well and cultured in DMEM (Dulbecco's Modified Eagle's Media) supplemented with 2.5% fetal bovine serum. 24 Hours later, the cells were transfected with 10 ng of pECE-RARα, long of pECE-RARγ, 100 ng of reporter plasmid and 100 ng of β-galactosidase-expression vector, using LipofectaminPlus (GIBCO BRL, grand island, N.Y.). 24 Hours post-transfection, the cells were treated for 24 hours with hydroxamic acid derivatives of Examples 1˜55 or retinol at a final concentration of 10^−4M or with retinoic acid at a final concentration of 10^−5M, which is 10 times lower concentration than those of the former.

RARγ = target: T2, RARγ (Homo sapiens, UniProt P13631); experiment: RARE-luciferase reporter assay in transfected CV-1 cells (affinity to retinoic acid receptor), RARγ; assay type: cell-based; details: treated 24 hours at final concentration 10^−4M, control group 5000
T2 construct: expressed in transfected cells; host or cells: CV-1 cells (ATCC)
T2 sequence (P13631 1-454): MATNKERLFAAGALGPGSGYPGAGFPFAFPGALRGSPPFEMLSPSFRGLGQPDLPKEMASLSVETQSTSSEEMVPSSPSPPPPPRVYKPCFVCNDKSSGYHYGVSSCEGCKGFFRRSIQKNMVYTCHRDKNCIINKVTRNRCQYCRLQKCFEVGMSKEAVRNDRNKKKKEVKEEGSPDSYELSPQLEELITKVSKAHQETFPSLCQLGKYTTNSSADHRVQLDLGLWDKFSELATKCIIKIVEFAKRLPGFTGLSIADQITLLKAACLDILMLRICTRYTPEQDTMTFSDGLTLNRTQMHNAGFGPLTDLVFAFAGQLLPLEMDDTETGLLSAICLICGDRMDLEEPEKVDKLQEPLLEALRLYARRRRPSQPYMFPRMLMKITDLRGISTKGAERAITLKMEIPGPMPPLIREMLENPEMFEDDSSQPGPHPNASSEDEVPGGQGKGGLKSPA
Method: as §1
CV-1 cells were seeded into 96-well microtiter plate at 5,000 cells per well and cultured in DMEM (Dulbecco's Modified Eagle's Media) supplemented with 2.5% fetal bovine serum. 24 Hours later, the cells were transfected with 10 ng of pECE-RARα, long of pECE-RARγ, 100 ng of reporter plasmid and 100 ng of β-galactosidase-expression vector, using LipofectaminPlus (GIBCO BRL, grand island, N.Y.).

procollagen type I = experiment: Effect on collagen biosynthesis (procollagen type I ELISA) in human fibroblasts; assay type: cell-based; details: 10^−4M, 24 hours, serum-free medium, relative to control group = 100
Method: Human fibroblasts were seeded into 24-well plate at 1×10^5 cells per well and then cultured to 90% of growth.
For each supernatant, procollagen production was measured with procollagen type I ELISA kit.

collagenase = experiment: Inhibition of collagenase expression in human fibroblasts (ELISA kit); assay type: cell-based; details: 10^−4M, 24 hours, serum-free medium, relative to control group = 100
Method: Human fibroblasts were seeded into 96-well microtiter plate at 5,000 cells per well and then cultured to 90% of growth in DMEM (Dulbecco's Modified Eagle's Media) supplemented with 2.5% fetal bovine serum. Then, the fibroblastes were cultured in serum-free DMEM for 24 hours and treated for 24 hours with 10^−4M of hydroxamic acid derivatives of Examples 1˜55, retinol or retinoic acid in serum-free medium, and then the culture fluid was collected.
(§2) For each culture fluid, collagenase production was measured with collagenase kit (commercialized by AmershamPharmacia Biotech). Firstly, the culture fluid was added to 96-well plate spread with primary collagenase antibody and then antigen-antibody reaction was performed in an incubator for 3 hours. Later, chromophore-conjugated secondary antibody was added to the 96-well plate and then reacted for 15 minutes. Then, color former was added thereto, to induce development at room temperature for 15 minutes. 1M of sulfuric acid was added to stop the reaction. […] The color density depends on the progress of the reaction. The absorbance of the yellow 96-well plate was measured at 405 nm using absorptiometer. Collagenase expression was calculated by the following equation 1. Herein, the absorbance of the culture fluid collected from the medium with no material treated was used as a control. Collagenase expression (%)=(Absorbance of test group with said material treated/Absorbance of control group with no material treated)×100 [Equation 1]
Collagenase expression was evaluated as a relative value, in consideration that the value of control group with no material treated is 100.

elastase = experiment: Inhibition of elastase expression in human fibroblasts (ELISA kit); assay type: cell-based; details: 10^−4M, 24 hours, serum-free medium, relative to control group = 100
Method: as §2, with “elastase” for “collagenase”, “Elastase” for “Collagenase”, “2.” for “1.”, “2]” for “1]”
Elastase expression was evaluated as a relative value, in consideration that the value of control group with no material treated is 100.

white guinea pigs = experiment: Phototoxicity test (UVA irradiation); details: for Evaluation (phototoxicity): 1%(w/v) solution, UVA 15 J/cm^2; for Phototoxic index: 50 μl of 1%(w/v) solution, UVA 320~380 nm 15 J/cm^2, observed 24, 48 and 72 hours
Method: Test was performed for twenty-five (25) of white guinea pigs whose backs were depilated and fixed. On both sides of the back, six(6) sites of 2 cm×2 cm, three(3) per side were sectioned. Right sites were compared as controls with no irradiation (UV non-irradiation sites) and left sites were irradiated (UV irradiation sites).
30 Minutes later, right sites were shielded with aluminum foil and UVA(320˜380 nm) was irradiated at a distance of about 10 cm therefrom using Waldmann to the final energy of 15 J/cm^2. After 24, 48 and 72 hours elapsed, skin response of guinea pig was observed. […] Evaluation was estimated for each elapsed time, i.e. 24, 48 and 72 hours and maximum scores were selected, to calculate irritation index by the following equation 3. Then, phototoxic index was calculated by the following equation 4. Irritation index=(ΣMaximum of erythema+ΣMaximum of edema)/Number of animals [Equation 3] Phototoxic index=(Irritation index of UV irradiation site)−(Irritation index of UV non-irradiation site) Equation 4]

rabbits = experiment: Primary skin irritation test on animals (Draize P.I.I.); details: depilated back; for P.I.I. (Primary Irritation Index): 0.5 ml of 1% solution in 1,3-butylene glycol:ethanol 7:3, observed 24 or 72 hours later; for Evaluation (skin irritation): 1% solution, according to Draize's P.I.I.

Compound | Luciferase activity RARα (RARα) | Luciferase activity RARγ (RARγ) | Collagen biosynthesis (%) (procollagen type I) | Collagenase expression (%) (collagenase) | Elastase expression (%) (elastase) | Evaluation (phototoxicity) (white guinea pigs) | Phototoxic index (white guinea pigs) | P.I.I. (Primary Irritation Index) (rabbits) | Evaluation (skin irritation) (rabbits)
Cc1ccc(C(=O)N(C)c2ccc(C(=O)NO)cc2)cc1 [Example 13, N-[4-(N-hydroxycarbamoyl)phenyl]-N-methyl-[4-methylphenyl]carboxyamide] | 12000 | 11200 | 117% | 70% | 84% | No phototoxicity (lower value than 0.5, criterion value to be estimated as no phototoxicity) | 0 | 0.500 | No irritation
CCCc1ccc(C(=O)Nc2ccc(CC(=O)NO)cc2)cc1 [Example 27, N-[4-(N-hydroxycarbamoylmethyl)phenyl][4-propylphenyl]carboxyamide] | 13920 | 11300 | 112% | 87% | 87% | No phototoxicity (lower value than 0.5, criterion value to be estimated as no phototoxicity) | 0 | 0.568 | No irritation
CC(C)(C)c1ccc(C(=O)Nc2ccc(C(=O)NO)cc2)cc1 [Example 8, N-[4-(N-hydroxycarbamoyl)phenyl][4-tert-butylphenyl]carboxyamide] | 10002 | 12000 | 112% | 90% | 69% | No phototoxicity (lower value than 0.5, criterion value to be estimated as no phototoxicity) | 0 | 0.330 | No irritation
CC(C)(C)c1ccc(NC(=O)c2ccc(C(=O)NO)cc2)cc1 [Example 41, [4-(N-hydroxycarbamoyl)phenyl]-N-[4-tert-butylphenyl]carboxyamide] | 14300 | 11211 | 115% | 88% | 78% | No phototoxicity (lower value than 0.5, criterion value to be estimated as no phototoxicity) | 0 | 0.367 | No irritation
CC(C)c1ccc(C(=O)N(C)c2ccc(C(=O)NO)cc2)cc1 [Example 17] | 12400 | 11700 | 111% | 81% | 82% | No phototoxicity (lower value than 0.5, criterion value to be estimated as no phototoxicity) | 0 | 0.123 | No irritation
Cc1ccc(N(C)C(=O)c2ccc(C(=O)NO)cc2)cc1 [Example 46, [4-(N-hydroxycarbamoyl)phenyl]-N-methyl-N-[4-methylphenyl]carboxyamide] | 13200 | 11123 | 121% | 83% | 80% | No phototoxicity (lower value than 0.5, criterion value to be estimated as no phototoxicity) | 0 | 0.345 | No irritation
CN(O)C(=O)c1ccc(N(C)C(=O)C23CC4CC(CC(C4)C2)C3)cc1 [Example 22, adamantyl-N-[4-(N-hydroxy-N-methylcarbamoyl)phenyl]-N-methylcarboxyamide] | 12100 | 12400 | 120% | 77% | 70% | No phototoxicity (lower value than 0.5, criterion value to be estimated as no phototoxicity) | 0 | 0.350 | No irritation
